From patent publication US9630956B2, “Compounds useful as inhibitors of ATR kinase” (Vertex Pharmaceuticals Incorporated, priority 2010, dated 2017)

Legend:
full-length ATR = full-length ATR (Homo sapiens (Human), UniProt Q13535); assay: ATR Inhibition Assay (radioactive-phosphate incorporation); type: biochemical; details: ATR Inhibition Ki(app); 10 μM ATP, 800 μM target peptide, 5 nM full-length ATR, 25° C.
How it was run: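 Full-length ATR at 5 nM was run in 50 mM Tris/HCl pH 7.5, 10 mM MgCl2 and 1 mM DTT with 10 μM [γ-33P]ATP and 800 μM peptide at 25° C, after a 10 min compound pre-incubation (top final 15 μM, 3-fold dilutions, 7% DMSO). Reactions were stopped at 24 h and counted after phosphocellulose capture. Ki(app) came from non-linear regression of initial rates.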

[1] = tested on: HCT116 colorectal cancer cells; assay: Cisplatin Sensitization Assay (96h cell viability MTS); type: cell-based; details: concentration of compound required to reduce the IC50 of Cisplatin alone by at least 3-fold, 96h MTS
Method: Compounds can be screened for their ability to sensitize HCT116 colorectal cancer cells to Cisplatin using a 96h cell viability (MTS) assay. […] Compounds and Cisplatin are then both added simultaneously to the cell media in 2-fold serial dilutions from a top final concentration of 10 μM as a full matrix of concentrations in a final cell volume of 200 μl, and the cells are then incubated at 37° C. in 5% CO2. After 96h, 40 μl of […] (Promega G358a) is added to each well and the cells are incubated for 1 h at 37° C. in 5% CO2.

Chain of full-length ATR (Q13535 whole entry): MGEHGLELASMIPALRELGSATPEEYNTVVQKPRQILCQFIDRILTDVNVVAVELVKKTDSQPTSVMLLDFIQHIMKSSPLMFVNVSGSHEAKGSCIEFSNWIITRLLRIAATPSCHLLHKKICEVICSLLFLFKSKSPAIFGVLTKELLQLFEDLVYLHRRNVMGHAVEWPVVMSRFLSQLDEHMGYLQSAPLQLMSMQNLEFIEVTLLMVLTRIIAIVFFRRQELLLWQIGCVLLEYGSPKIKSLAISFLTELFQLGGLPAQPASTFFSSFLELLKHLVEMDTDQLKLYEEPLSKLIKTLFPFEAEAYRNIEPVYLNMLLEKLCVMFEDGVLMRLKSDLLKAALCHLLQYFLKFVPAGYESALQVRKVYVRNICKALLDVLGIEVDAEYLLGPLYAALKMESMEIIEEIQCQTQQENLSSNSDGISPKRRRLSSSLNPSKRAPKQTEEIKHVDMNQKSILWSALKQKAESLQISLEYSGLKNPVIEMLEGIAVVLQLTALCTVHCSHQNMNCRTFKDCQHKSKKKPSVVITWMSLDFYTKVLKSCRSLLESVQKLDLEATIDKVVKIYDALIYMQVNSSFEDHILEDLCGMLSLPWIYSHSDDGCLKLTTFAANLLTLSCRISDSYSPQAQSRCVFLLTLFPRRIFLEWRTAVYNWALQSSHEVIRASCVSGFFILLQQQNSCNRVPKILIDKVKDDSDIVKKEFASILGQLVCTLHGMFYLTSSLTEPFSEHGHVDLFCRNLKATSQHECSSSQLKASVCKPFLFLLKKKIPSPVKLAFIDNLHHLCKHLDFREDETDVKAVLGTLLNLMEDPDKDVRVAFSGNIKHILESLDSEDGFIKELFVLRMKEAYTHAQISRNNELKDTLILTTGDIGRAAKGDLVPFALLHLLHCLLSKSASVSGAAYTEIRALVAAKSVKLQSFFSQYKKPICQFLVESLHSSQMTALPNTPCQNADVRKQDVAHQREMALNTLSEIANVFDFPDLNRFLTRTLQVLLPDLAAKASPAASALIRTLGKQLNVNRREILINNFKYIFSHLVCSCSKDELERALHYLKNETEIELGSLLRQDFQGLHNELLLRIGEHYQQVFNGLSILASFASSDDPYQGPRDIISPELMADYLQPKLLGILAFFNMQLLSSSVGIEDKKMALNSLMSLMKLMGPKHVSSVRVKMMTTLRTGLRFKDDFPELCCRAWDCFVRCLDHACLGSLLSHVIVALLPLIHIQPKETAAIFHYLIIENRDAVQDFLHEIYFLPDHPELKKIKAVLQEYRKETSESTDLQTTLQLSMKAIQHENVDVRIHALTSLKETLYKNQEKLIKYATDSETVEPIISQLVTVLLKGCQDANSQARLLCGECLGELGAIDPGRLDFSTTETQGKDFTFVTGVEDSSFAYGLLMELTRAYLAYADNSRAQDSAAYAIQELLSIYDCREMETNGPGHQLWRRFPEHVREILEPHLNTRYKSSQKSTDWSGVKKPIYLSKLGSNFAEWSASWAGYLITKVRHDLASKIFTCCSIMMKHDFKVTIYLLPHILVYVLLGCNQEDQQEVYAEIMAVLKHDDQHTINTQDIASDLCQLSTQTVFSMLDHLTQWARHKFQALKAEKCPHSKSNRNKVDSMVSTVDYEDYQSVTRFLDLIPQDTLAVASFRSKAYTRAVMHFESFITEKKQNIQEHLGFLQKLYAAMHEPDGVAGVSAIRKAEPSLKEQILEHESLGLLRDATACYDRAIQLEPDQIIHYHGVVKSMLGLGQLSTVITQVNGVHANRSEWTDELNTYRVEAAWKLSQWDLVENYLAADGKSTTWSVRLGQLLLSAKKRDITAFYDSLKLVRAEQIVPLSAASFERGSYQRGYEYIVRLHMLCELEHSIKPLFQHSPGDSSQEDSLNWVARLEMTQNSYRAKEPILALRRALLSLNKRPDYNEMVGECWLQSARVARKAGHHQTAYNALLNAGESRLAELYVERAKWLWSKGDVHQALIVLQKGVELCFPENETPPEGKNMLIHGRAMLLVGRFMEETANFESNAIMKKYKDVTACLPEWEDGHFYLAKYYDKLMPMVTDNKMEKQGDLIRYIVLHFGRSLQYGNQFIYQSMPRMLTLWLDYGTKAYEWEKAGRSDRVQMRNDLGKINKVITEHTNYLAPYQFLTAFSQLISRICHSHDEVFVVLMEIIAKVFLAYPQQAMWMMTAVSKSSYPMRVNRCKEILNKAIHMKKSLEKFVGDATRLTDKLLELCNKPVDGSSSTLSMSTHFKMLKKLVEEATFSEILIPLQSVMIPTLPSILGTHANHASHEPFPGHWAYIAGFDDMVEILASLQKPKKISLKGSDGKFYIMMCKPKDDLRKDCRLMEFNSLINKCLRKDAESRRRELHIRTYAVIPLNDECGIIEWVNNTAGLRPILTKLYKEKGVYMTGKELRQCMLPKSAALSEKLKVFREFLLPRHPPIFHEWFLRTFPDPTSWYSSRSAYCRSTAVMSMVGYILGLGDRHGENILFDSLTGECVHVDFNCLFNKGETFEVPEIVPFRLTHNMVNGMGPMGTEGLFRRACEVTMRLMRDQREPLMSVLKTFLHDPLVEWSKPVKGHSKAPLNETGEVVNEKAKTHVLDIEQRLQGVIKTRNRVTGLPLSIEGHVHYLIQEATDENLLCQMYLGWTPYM

Row | Compound | Ki (full-length ATR) [nM] | CP3 shift [1] [µM]
1 | CC1CCC(n2cc(-c3cnc(N)c(-c4cc(-c5cccc(C(C)N)c5)no4)n3)ccc2=O)C1 (stereo not drawn) [Compound I-124] | ≤ 5 | 0.039
2 | CNCc1ccc(-c2cc(-c3nc(-c4ccc(=O)n(C(C)(C)C#N)c4)cnc3N)on2)cc1 [Compound I-125] | ≤ 5 | 0.015
3 | CCC(CC)n1cc(-c2cnc(N)c(-c3cc(-c4ccc(CNCCF)cc4)no3)n2)ccc1=O [Compound I-126] | ≤ 5 | 0.625
4 | CCC(CC)n1cc(-c2cnc(N)c(-c3cc(-c4ccc(CNC5CC5)cc4F)no3)n2)ccc1=O [Compound I-128] | ≤ 5 | 0.078
5 | CCC(CC)n1cc(-c2cnc(N)c(-c3cc(-c4ccc(CNC)cc4F)no3)n2)ccc1=O [Compound I-129] | ≤ 5 | 0.02
6 | CCC(CC)n1cc(-c2cnc(N)c(-c3cc(-c4cccc(C(N)CF)c4)no3)n2)ccc1=O (stereo not drawn) [Compound I-131] | ≤ 5 | 0.02
7 | CCC(N)c1cccc(-c2cc(-c3nc(-c4ccc(=O)n(C(CC)CC)c4)cnc3N)on2)c1 (stereo not drawn) [Compound I-133] | ≤ 5 | 0.039
8 | CCC(C#N)(CC)n1cc(-c2cnc(N)c(-c3cc(-c4ccc(CNC)cc4)no3)n2)ccc1=O [Compound I-134] | ≤ 5 | 0.02
9 | CCC(CC)n1cc(-c2cnc(N)c(-c3cc(-c4ccc(CNC5(C)CC5)cc4)no3)n2)ccc1=O [Compound I-140] | ≤ 5 | 0.156
10 | CNCc1ccc(-c2cc(-c3nc(-c4ccc(=O)n(C5(C#N)CCCC5)c4)cnc3N)on2)cc1 [Compound I-143] | ≤ 5 | 0.01

More lines, main results first:

Row | Ki (full-length ATR) [nM] | Compound | CP3 shift [1] [µM]
11 | ≤ 5 | CCC(CC)n1cc(-c2cnc(N)c(-c3cc(-c4ccc(CNC5CC(F)(F)C5)cc4)no3)n2)ccc1=O [Compound I-127] | 0.312
12 | ≤ 5 | CCC(CC)n1cc(-c2cnc(N)c(-c3cc(-c4ccc(CN[C@@H]5CCC(F)C5)cc4)no3)n2)ccc1=O (stereo partly drawn) [Compound I-130] | 0.078
13 | ≤ 5 | CCC(CC)c1cc(-c2cnc(N)c(-c3cc(-c4ccc(CNC)cc4F)no3)n2)c[nH]c1=O [Compound I-132] | 0.01
14 | ≤ 5 | CCC(C#N)(CC)n1cc(-c2cnc(N)c(-c3cc(-c4cccc([C@@H](C)N)c4)no3)n2)ccc1=O [Compound I-138] | 0.01
15 | ≤ 5 | CC(C)(C#N)n1cc(-c2cnc(N)c(-c3cc(-c4ccc(CNC5CCOC5)cc4)no3)n2)ccc1=O (stereo not drawn) [Compound I-145] | 0.01
